pIC50, pKi: −log10 of the molar value. Where “and” joins values, the source holds several entries; their conditions need not be identical. Identical values can stand only once. Like-named read-outs stand apart in the source and are kept apart here.
Columns and labels:
[1] = molecular target: T1, MtQAPRTase (Mycobacterium tuberculosis, UniProt P9WJJ7)
T1 sequence (P9WJJ7 1-285): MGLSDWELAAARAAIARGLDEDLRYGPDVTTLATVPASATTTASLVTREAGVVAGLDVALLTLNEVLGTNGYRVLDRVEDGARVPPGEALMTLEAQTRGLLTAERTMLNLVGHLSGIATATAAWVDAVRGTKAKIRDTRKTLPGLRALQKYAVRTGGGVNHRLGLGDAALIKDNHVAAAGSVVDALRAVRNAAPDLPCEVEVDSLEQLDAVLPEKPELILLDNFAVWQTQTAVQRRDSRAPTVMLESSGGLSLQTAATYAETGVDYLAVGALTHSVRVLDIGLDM

[2] = molecular target: T1, MtQAPRTase; experiment: Inhibition of MtQAPRTase activity by PZA/POA (HPLC quantification of NAMN); type: biochemical, Mycobacterium tuberculosis H37Rv; set-up: Full-length nadC from M. tuberculosis H37Rv was inserted into the expression vector pET-30a; made in house; host or cells: E. coli BL21 (DE3), pET-30a; conditions: for pIC50: IC50; for pKi: read-out: Ki estimated from IC50 by web-based tool
[3] = molecular target: T1, MtQAPRTase; experiment: PZA or POA added instead of QA or PRPP as substrate (HPLC); type: biochemical, Mycobacterium tuberculosis H37Rv; set-up: Full-length nadC from M. tuberculosis H37Rv was inserted into the expression vector pET-30a; made in house; host or cells: E. coli BL21 (DE3), pET-30a
[4] = molecular target: T2, WT MtQAPRTase (Mycobacterium tuberculosis, UniProt P9WJJ7); experiment: Kinetic parameters of MtQAPRTase (spectrophotometric assay at 266 nm); type: biochemical, Mycobacterium tuberculosis H37Rv
T2 sequence (P9WJJ7 1-285): T1 sequence (P9WJJ7 1-285)

[Ca+2].[Cl-].[Cl-] [Ca^2+ (CaCl2), CaCl2]
Relative Activity [1]: 0%
Specific activity [1]: 0 Unit/mg

[Cl-].[Cl-].[Co+2] [Co^2+ (CoCl2), CoCl2]
Relative Activity [1]: 12%
Specific activity [1]: 0.15 Unit/mg

O=S(=O)([O-])[O-].[Cu+2] [Cu^2+ (CuSO4), CuSO4]
Relative Activity [1]: 0%
Specific activity [1]: 0 Unit/mg

[Cl][Fe][Cl] [Fe^2+ (FeCl2), FeCl2]
Relative Activity [1]: 6%
Specific activity [1]: 0.06 Unit/mg

[Cl-].[Cl-].[Mg+2] [Mg^2+ (MgCl2), MgCl2]
Relative Activity [1]: 100%
Specific activity [1]: 1.32 Unit/mg

[Cl][Mn][Cl] [Mn^2+ (MnCl2), MnCl2]
Relative Activity [1]: 27%
Specific activity [1]: 0.35 Unit/mg

O=C(O)c1cnccn1 [POA, Pyrazinoic acid]
pIC50 [2]: 2.46 and < 1.70
pKi ([2]; pH 7.2): 3.76
Use as substrate by MtQAPRTase [3]: not substrates

O=P(O)(O)OC[C@H]1O[C@H](OP(=O)(O)OP(=O)(O)O)[C@H](O)[C@@H]1O [PRPP, 5-phosphoribosyl-1-pyrophosphate]
kcat ([4]; varied substrate, other substrate fixed (QA 0.3 mM or PRPP 1.0 mM), pH 7.2, 37°C): 0.14 s⁻¹
Km ([4]; varied substrate, other substrate fixed (QA 0.3 mM or PRPP 1.0 mM), pH 7.2, 37°C, read-out: Km): 390 µM

NC(=O)c1cnccn1 [PZA, Pyrazinamide]
pIC50 [2]: 3.42 and 2.86
pKi ([2]; pH 6.2): 4.16
pKi ([2]; pH 7.2): 4.72
Use as substrate by MtQAPRTase [3]: not substrates

O=C(O)c1cccnc1C(=O)O [QA, 2,3-pyridinedicarboxylic acid]
Km ([4]; pH 7.2): 80 µM
kcat ([4]; pH 7.2): 0.12 s^-1 and 0.12

[Cl-].[Cl-].[Zn+2] [Zn^2+ (ZnCl2), ZnCl2]
Relative Activity [1]: 0%
Specific activity [1]: 0 Unit/mg

— article PMC4065032, “Biochemical Characterization of Quinolinic Acid Phosphoribosyltransferase from Mycobacterium tuberculosis H37Rv and Inhibition of Its Activity by Pyrazinamide” (PLoS ONE, 2014)
